Experimental data published in patent US20110237629A1, “AMINO ACID ESTER PRODRUGS AND THE USE THEREOF” (Bayer Schering Pharma Aktiengesellschaft, priority 2008, published 2011).
Where a name gives a salt, the structure may show the parent alone.

Experiments:
[1] = Determination of the solubility (suspension shaken 24 h at room temperature, HPLC of supernatant); assay type: physicochemical; settings: thermodynamic from solid
Description: The test substance is suspended in water or dilute hydrochloric acid (pH 4) or in 5% strength aqueous dextrose solution. This suspension is shaken at room temperature for 24 h. After ultracentrifugation at 224 000 g for 30 min, the supernatant is diluted with DMSO and analysed by HPLC. A two-point calibration plot of the test compound in DMSO is used for quantification.
Agilent 1100 with DAD (G1315A), quat. Pump (G1311A), autosampler CTC HTS PAL, degasser (G1322A) and column thermostat (G1316A); column: Phenomenex Gemini C18, 5 μm, 50 mm×2 mm; temperature: 40° C.; eluent A: water/phosphoric acid pH 2, eluent B: acetonitrile; flow rate: 0.7 ml/min; gradient: 0-0.5 min 85% A, 15% B; ramp 0.5-3 min 10% A, 90% B; 3-3.5 min 10% A, 90% B; ramp 3.5-4 min 85% A, 15% B; 4-5 min 85% A, 15% B.
Agilent 1100 with DAD (G1315A), quat. pump (G1311A), autosampler CTC HTS PAL, degasser (G1322A) and column thermostat (G1316A); column: VDSoptilab Kromasil 100 C18, 3.5 μm, 60 mm×2.1 mm; temperature: 30° C.; eluent A: water+5 ml of perchloric acid/liter, eluent B: acetonitrile; flow rate: 0.75 ml/min; gradient: 0-0.5 min 98% A, 2% B; ramp 0.5-4.5 min 10% A, 90% B; 4.5-6 min 10% A, 90% B; ramp 6.5-6.7 min 98% A, 2% B; 6.7-7.5 min 98% A, 2% B.
The solubilities of representative exemplary embodiments in dilute hydrochloric acid (pH 4) are shown in Table1: […]

[2] = Stability in buffer at various pH values; assay type: physicochemical
Description: 0.3 mg of the test substance is weighed into a 2 ml HPLC vial and 0.5 ml of acetonitrile or acetonitrile/DMSO (9:1) is added. The substance is dissolved by putting the sample vessel in an ultrasonic bath for about 10 seconds. Then 0.5 ml of the respective buffer solution is added, and the sample is again treated in the ultrasonic bath.
(Buffer) solutions employed:
pH 4: 1 liter of Millipore water is adjusted to pH 4.0 with 1 N hydrochloric acid;
pH 5: 0.096 mol of citric acid and 0.2 mol of sodium hydroxide ad 1 liter of water;
pH 7.4: 90.0 g of sodium chloride, 13.61 g of potassium dihydrogen phosphate and 83.35 g of 1 N sodium hydroxide solution are made up to 1 liter with water; this solution is then further diluted 1:10 with Millipore water.
pH 8: 0.013 mol of borax and 0.021 mol of hydrochloric acid ad 1 liter of water.
5 μl portions of the test solution are analyzed by HPLC for their content of unchanged test substance, and of basic mother substance of the formula (A) formed, every hour over a period of 24 hours at 37° C. The percentage areas of the appropriate peaks are used for quantification.
HPLC method for example 1:
(§1) Agilent 1100 with DAD (G1315B), binary pump (G1312A), autosampler (G1329A), column oven (G1316A), thermostat (G1330B); column: Kromasil 100 C18, 125 mm×4 mm, 5 μm; column temperature: 30° C.; eluent A: water+5 ml perchloric acid/liter, eluent B: acetonitrile; gradient: 0 min 90% A→2.0 min 70% A→18.0 min 70% A 20.0 min 10% A→21.0 min 10% A→23.0 min 90% A→26.0 min 90% A; flow rate: 2.0 ml/min;
HPLC method for example 3:
as §1, with “(G1314A),” for “(G1315B),”, “(G1330A);” for “(G1330B);”, “64%” for “70%”, “64% A→20.0” for “70% A 20.0”, “ml/min UV detection: 294 nm.” for “ml/min;”
HPLC method for example 11:
as §1, with “ml of” for “ml”, “64%” for “70%”, “64% A→20.0” for “70% A 20.0”, “ml/min; UV detection: 294 nm.” for “ml/min;”
HPLC method for example 14:
Agilent 1100 with DAD (G1315B), binary pump (G1312A), autosampler (G1329A), column oven (G1316A), thermostat (G1330B); column: Kromasil 100 C18, 250 mm×4 mm, 5 μm; column temperature: 30° C.; eluent A: water+5 ml of perchloric acid/liter, eluent B: acetonitrile; gradient: 0 min 90% A→7.0 min 52% A→18.0 min 52% A→20.0 min 10% A→21.0 min 10% A→23.0 min 90% A -4 26.0 min 90% A; flow rate: 2.0 ml/min; UV detection: 288 nm.
HPLC method for example 18:
Agilent 1100 with DAD (G1315A), binary pump (G1312A), autosampler (G1329A), column oven (G1316A), thermostat (G1330A); column: Kromasil 100 C18, 125 mm×4 mm, 5 μm; column temperature: 30° C.; eluent A: water+5 ml of perchloric acid/liter, eluent B: acetonitrile; gradient: 0 min 90% A→6.0 min 61% A→18.0 min 61% A→20.0 min 10% A→21.0 min 10% A→23.0 min 90% A→26.0 min 90% A; flow rate: 2.0 ml/min; UV detection: 294 nm.
The ratios of the peak areas (F) at the respective time points in relation to the peak areas at the starting time are shown in Table 3 for representative exemplary embodiments: […]

[3] = i.v. pharmacokinetics in Wistar rats; assay type: in vivo; settings: male Wistar rats, i.v. bolus, first measurement point
Description: On the day before administration of the substance, a catheter for obtaining blood is implanted in the jugular vein of the experimental animals (male Wistar rats, body weight 200-250 g) under Isofluran® anesthesia. On the day of the experiment, a defined dose of the test substance is administered as solution into the tail vein using a Hamilton® glass syringe (bolus administration, duration of administration <10 s). Blood samples (8-12 time points) are taken through the catheter sequentially over the course of 24 h after administration of the substance. Plasma is obtained by centrifuging the samples in heparinized tubes. Acetonitrile is added to a defined plasma volume per time point to precipitate proteins. After centrifugation, test substance and, where appropriate, known cleavage products of the test substance in the supernatant are determined quantitatively using a suitable LC/MS-MS method. […] Only the active ingredient (example 8A) was detectable up to the 8-hour time point too.

SMILES: C[C@H](N)C(=O)OC[C@H](COc1ccc(-c2c(C#N)c(N)nc(SCc3coc(-c4ccc(Cl)cc4)n3)c2C#N)cc1)OC(=O)[C@H](C)N [Example 1, (2S)-3-{4-[2-Amino-6-({[2-(4-chlorophenyl)-1,3-oxazol-4-yl]methyl}sulfanyl)-3,5-dicyanopyridin-4-yl]phenoxy}propane-1,2-diyl(2S,2′S)-bis(2-aminopropanoate)dihydrochloride]
- solubility at 24 h ([1]; aqueous buffer, dilute hydrochloric acid (pH 4)): > 500 µg/mL
- solubility at 24 h ([1]; saline or isotonic, 5% strength aqueous dextrose solution): > 500 µg/mL
- % test substance after 4 h [F(t = 4 h) × 100/F(t = 0 h)] ([2]; pH 4, 37° C.): 99%
- % test substance after 24 h [F(t = 24 h) × 100/F(t = 0 h)] ([2]; pH 4, 37° C.): 98%
- % test substance after 4 h [F(t = 4 h) × 100/F(t = 0 h)] ([2]; pH 7.4, 37° C.): 90%
- % test substance after 24 h [F(t = 24 h) × 100/F(t = 0 h)] ([2]; pH 7.4, 37° C.): 53%
- detectability of the test substance (prodrug) in plasma after i.v. administration [3]: no longer detectable
